From patent US20230012368A1 (Hoffmann-La Roche Inc., priority 2018, published 2023) come the findings set out here.

Structures can show the parent of a compound that is named as a salt.

For the first experiment, the system named is Acinetobacter baumannii ATCC 17978. The experiment in a line: Antimicrobial susceptibility testing: 90% growth inhibitory concentration (IC90) determination. It is filed as cell-based. Particulars: 90% growth inhibitory concentration; Acinetobacter baumannii ATCC17978; Iso-Sensitest broth, OD 600 nm over 16h; read-out: ATCC17978 IC90. The procedure:
Antimicrobial Susceptibility Testing:
90% Growth Inhibitory Concentration (IC90) Determination
The in vitro antimicrobial activity of the compounds was determined according to the following procedure:
The assay used a 10-points Iso-Sensitest broth medium to measure quantitatively the in vitro activity of the compounds against Acinetobacter baumannii ATCC 17978 and Acinetobacter baumannii ATCC 17961.
Stock compounds in DMSO were serially twofold diluted (e.g. range from 50 to 0.097 μM final concentration) in 384 wells microtiter plates and inoculated with 49 μl the bacterial suspension in Iso-Sensitest medium to have a final cell concentration of ˜5×10^(5) CFU/ml in a final volume/well of 50 ul/well. Microtiter plates were incubated at 35±2° C.
Bacterial cell growth was determined with the measurement of optical density at λ=600 nm each 20 minutes over a time course of 16h. Growth inhibition was calculated during the logarithmic growth of the bacterial cells with determination of the concentration inhibiting 50% (IC50) and 90% (IC90) of the growth.
Table 1 provides the 90% growth inhibitory concentrations (IC90) in micromoles per liter of the compounds of present invention obtained against the strain Acinetobacter baumannii ATCC17978 and Acinetobacter baumannii ATCC17961.
As to `CCc1cc(Nc2nccn3c(-c4ccc(OC)c(F)c4F)cnc23)ccc1C(=O)N[C@H](CN)CO` [Example 539, N-[(1R)-1-(aminomethyl)-2-hydroxy-ethyl]-4-[[3-(2,3-difluoro-4-methoxy-phenyl)imidazo[1,2-a]pyrazin-8-yl]amino]-2-ethyl-benzamide; formic acid], the IC90 (commonly the point of the concentration-response curve where the effect stands at 90%) was 410 nM.
Still for that read-out and setting: the value for `Cc1cc(Nc2nccn3c(-c4ccc(OCC#N)c(F)c4F)cnc23)ccc1C(=O)NCCNC(=O)[C@@H]1CCNC[C@@H]1O` [Example 451, (3R,4R)-N-[2-[[4-[[3-[4-(cyanomethoxy)-2,3-difluoro-phenyl]imidazo[1,2-a]pyrazin-8-yl]amino]-2-methyl-benzoyl]amino]ethyl]-3-hydroxy-piperidine-4-carboxamide; formic acid] was 760 nM.

Still in this experiment, the particulars now being: Acinetobacter baumannii, ATCC17978, 16 h, 90% growth inhibitory concentration; Acinetobacter baumannii ATCC17978; Iso-Sensitest broth, OD 600 nm over 16h; read-out: ATCC17978 IC90.
With `COc1ccc(-c2cnc3c(Nc4ccc(C(=O)NCC5CCNCC5)c(Cl)c4)nccn23)c(F)c1F` [Example 58, 2-chloro-4-[[3-(2,3-difluoro-4-methoxy-phenyl)imidazo[1,2-a]pyrazin-8-yl]amino]-N-(4-piperidylmethyl) benzamide], the concentration for an effect of 90% (IC90) turned out to be 170 nM.
For the compound `COc1ccc(-c2cnc3c(Nc4ccc(C(=O)N5CCC(C(=O)NCC6CN(C)C6)CC5)c(C)c4)nccn23)cc1F` [REF 114, 1-(4-((3-(3-fluoro-4-methoxyphenyl)imidazo [1,2-a]pyrazin-8-yl)amino)-2-methylbenzoyl)-N-((1-methylazetidin-3-yl)methyl)piperidine-4-carboxamide], the IC90 worked out at 470 nM.
Still for that read-out and setting: the value for `CCc1cc(Nc2nccn3c(-c4ccc(Oc5ncccn5)c(F)c4F)cnc23)ccc1C(=O)NCC1CCN(CC2CCNC2)CC1` (stereo not shown) [Example 549, 4-((3-(2,3-difluoro-4-(pyrimidin-2-yloxy)phenyl)imidazo[1,2-a]pyrazin-8-yl)amino)-2-ethyl-N-((1-(pyrrolidin-3-ylmethyl)piperidin-4-yl)methyl)benzamide formate] was 490 nM.
On the same count and under the same terms, the value for `Cc1cc(Nc2nccn3c(-c4ccc(OC(F)F)cc4)cnc23)ccc1C(=O)NCCCC[C@H](N)C(=O)O` [Example 271, (2S)-2-amino-6-[[4-[[3-[4-(difluoromethoxy)phenyl]im-idazo[1,2-a]pyrazin-8-yl]amino]-2-methylbenzoyl]amino]hexa-noic acid] was 9300 nM; that for `CCc1cc(Nc2nccn3c(-c4ccc(OC)c(F)c4F)cnc23)ccc1C(=O)N[C@@H](C)CNC(=O)[C@@H](N)CCCNC(=N)N` [Example 342, N-[(2S)-1-[[(2S)-2-amino-5-carbamimidamidopentanoyl]amino]propan-2-yl]-4-[[3-(2,3-difluoro-4-methoxyphenyl)imidazo[1,2-a]pyrazin-8-yl]amino]-2-ethylbenzamide; formic acid] was 730 nM.
Same read-out and setting: the value for `C=CCNC(=O)c1ccc(Nc2nccn3c(-c4ccc(OC)c(F)c4F)cnc23)cc1CC` [Example 329, 4-[[3-(2,3-difluoro-4-methoxyphenyl)imidazo[1,2-a]pyrazin-8-yl]amino]-2-ethyl-N-prop-2-enylbenzamide] was 140 nM.
Regarding `CCc1cc(Nc2nccn3c(-c4ccc(OC)c(F)c4F)cnc23)ccc1C(=O)NCC(O)CN` (stereo not shown) [Example 334, N-(3-amino-2-hydroxypropyl)-4-[[3-(2,3-difluoro-4-methoxyphenyl)imidazo[1,2-a]pyrazin-8-yl]amino]-2-ethylbenzamide], the IC90 worked out at 350 nM.
Still for that read-out and setting: for `CCc1cc(Nc2nccn3c(-c4ccc(Oc5ccccn5)c(F)c4F)cnc23)ccc1C(=O)NCCNC(=O)[C@@H](N)CCNC(=N)N` [Example 420, N-[2-[[(2S)-2-amino-4-guanidino-butanoyl]amino]ethyl]-4-[[3-[2,3-difluoro-4-(2-pyridyloxy)phenyl]imidazo [1,2-a]pyrazin-8-yl]amino]-2-ethyl-benzamide; formic acid] the value was 720 nM; for `COc1ccc(-c2cnc3c(Nc4ccc(C(=O)N(CCN5CCNCC5)CC(F)F)c(C)c4)nccn23)cc1F` [Example 175, N-(2,2-difluoroethyl)-4-[[3-(3-fluoro-4-methoxyphenyl)imidazo[1,2-a]pyrazin-8-yl]amino]-2-methyl-N-(2-piperazin-1-ylethyl)benzamide;hydrochlo-ride], 2300 nM; for `CCc1cc(Nc2nccn3c(-c4ccc(OC)c(F)c4F)cnc23)ccc1C(=O)N[C@H](C)CN` [Example 101, (R)-N-(1-aminopropan-2-yl)-4-((3-(2,3-difluoro-4-methoxyphenyl)imidazo [1,2-a]pyrazin-8-yl)amino)-2-ethylbenzamide dihydrochloride], 240 nM.
On to `CCc1cc(Nc2nccn3c(-c4ccc(Oc5ccccn5)c(F)c4F)cnc23)ccc1C(=O)NCCCC(=O)N1CCN[C@H](CO)C1` [Example 476, 4-[[3-[2,3-difluoro-4-(2-pyridyloxy)phenyl]imidazo [1,2-a]pyrazin-8-yl]amino]-2-ethyl-N-[4-[(3S)-3-(hydroxymethyl)piperazin-1-yl]-4-oxo-butyl]benzamide], for which the IC90 worked out at 360 nM.
Same read-out and setting: the value for `COc1ccc(-c2cnc3c(Nc4ccc(C(=O)N[C@H](C)CNC(C)=N)c(C)c4)nccn23)c(F)c1F` [Example 486, 4-[[3-(2,3-difluoro-4-methoxyphenyl)imidazo[1,2-a]pyrazin-8-yl]amino]-#N!- [(2#R!)-1-(ethanimidoylamino)propan-2-yl]-2-methylbenzamide;formic acid] was 68 nM; that for `COc1ccc(-c2cnc3c(Nc4ccc(C(=O)N(C)CCC5CCNCC5)c(C)c4)nccn23)c(F)c1F` [Example 63, 4-((3-(2,3-difluoro-4-methoxyphenyl)imidazo [1,2-a]pyrazin-8-yl)amino)-N,2-dimethyl-N-(2-(piperidin-4-yl)ethyl)benzamide] was 90 nM; that for `COc1ccc(-c2cnc3c(Nc4ccc(C(=O)NC[C@H](N)CNC(=O)[C@@H]5C[C@@H](O)CN5)c(C)c4)nccn23)c(F)c1F` [Example 469, (2S,4R)-N-[(2S)-2-amino-3-[[4-[[3-(2,3-difluoro-4-methoxy-phenyl)imidazo[1,2-a]pyrazin-8-yl]amino]-2-methyl-benzoyl]amino]propyl]-4-hydroxy-pyrrolidine-2-carboxamide; formic acid] was 500 nM.
Regarding `CCc1cc(Nc2nccn3c(-c4ccc(OC)c(F)c4F)cnc23)ccc1C(=O)NCC1CCN(CCC2CCCN2)CC1` (stereo not shown) [Example 556, 4-[[3-(2,3-difluoro-4-methoxy-phenyl)imidazo[1,2-a]pyrazin-8-yl]amino]-2-ethyl-N-[[1-(2-pyrrolidin-2-ylethyl)-4-piperidyl]methyl]benzamide], the IC90 is 310 nM.
Still for that read-out and setting: the value for `Cc1cc(Nc2nccn3c(-c4ccc(OC(F)F)cc4)cnc23)ccc1C(=O)NCCN1C[C@@H](C)O[C@@H](C)C1` [Example 278, 4-[[3-[4-(difluoromethoxy)phenyl]im-idazo[1,2-a]pyrazin-8-yl]amino]-2-methyl-N-[2-[rac-(2R,6S)-2,6-dimethylmorpholin-4-yl]ethyl]benzamide] was 1400 nM; that for `CCc1cc(Nc2nccn3c(-c4ccc(OC)c(F)c4F)cnc23)ccc1C(=O)NCC1CCN(CC(=O)O)CC1` [Example 559, 2-[4-[[[4-[[3-(2,3-difluoro-4-methoxy-phenyl)imidazo[1,2-a]pyrazin-8-yl]amino]-2-ethyl-benzoyl]amino]methyl]-1-piperidyl]acetic acid] was 270 nM.
